PubChem BioAssay AID2060491 (Molecular Pharmacology Branch, DTP, NCI, 2025)

Test system: 857933-349-R-J2-PDC complex spheroids, viability
Experiment: Anticancer human tumor 857933-349-R-J2-PDC patient-derived colon adenocarcinoma cell line growth inhibition [GQUAD]
Conditions: for IC50: curve of first compound; for viability, T/C: stronger effect = lower value
Outline: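 Multi-cell-type spheroids of tumor cells with HUVEC and mesenchymal stem cells, treated with drug combinations. Concentrations descend in half-log steps from near clinical Cmax, or from 10 microM where Cmax is unknown; viability read-out.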

[1] = second compound 0.0316 µM, first compound 0.0316 µM
[2] = second compound 0.0316 µM, first compound 0.316 µM
[3] = second compound 0.1 µM, first compound 0.0316 µM
[4] = second compound 0.1 µM, first compound 0.316 µM
[5] = second compound 0.316 µM, first compound 0.0316 µM
[6] = second compound 0.316 µM, first compound 0.316 µM
[7] = second compound 1 µM, first compound 0.0316 µM
[8] = second compound 1 µM, first compound 0.316 µM
[9] = second compound 3.16 µM, first compound 0.0316 µM
[10] = second compound 3.16 µM, first compound 0.316 µM
[11] = second compound 10 µM, first compound 0.0316 µM
[12] = second compound 10 µM, first compound 0.316 µM
[13] = second compound 0.0316 µM, first compound 0.1 µM
[14] = second compound 0.0316 µM, first compound 1 µM
[15] = second compound 0.0316 µM, first compound 3.16 µM
[16] = second compound 0.0316 µM, first compound 10 µM
[17] = second compound 0.1 µM, first compound 0.1 µM
[18] = second compound 0.1 µM, first compound 1 µM
[19] = second compound 0.1 µM, first compound 3.16 µM
[20] = second compound 0.1 µM, first compound 10 µM
[21] = second compound 0.316 µM, first compound 0.1 µM
[22] = second compound 0.316 µM, first compound 1 µM
[23] = second compound 0.316 µM, first compound 3.16 µM
[24] = second compound 0.316 µM, first compound 10 µM
[25] = second compound 1 µM, first compound 0.1 µM
[26] = second compound 1 µM, first compound 1 µM
[27] = second compound 1 µM, first compound 3.16 µM
[28] = second compound 1 µM, first compound 10 µM
[29] = second compound 3.16 µM, first compound 0.1 µM
[30] = second compound 3.16 µM, first compound 1 µM
[31] = second compound 3.16 µM, first compound 3.16 µM
[32] = second compound 3.16 µM, first compound 10 µM
[33] = second compound 10 µM, first compound 0.1 µM
[34] = second compound 10 µM, first compound 1 µM
[35] = second compound 10 µM, first compound 3.16 µM
[36] = second compound 10 µM, first compound 10 µM
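Note: spheroids exposed to compounds for one week before readout.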
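Throughout, for viability, T/C: percent viability relative to vehicle DMSO wells taken as 100%.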

Cn1ncnc1[C@H]1c2n[nH]c(=O)c3cc(F)cc(c23)N[C@@H]1c1ccc(F)cc1 + CN(C)c1ccc(Nc2c3ccc(NC(=O)CCN4CCCC4)cc3nc3cc(NC(=O)CCN4CCCC4)ccc23)cc1
IC50 (second compound 0.0316 µM): > 316 nM | IC50 (second compound 0.1 µM): > 316 nM | IC50 (second compound 0.316 µM): > 316 nM | IC50 (second compound 1 µM): > 316 nM | IC50 (second compound 3.16 µM): > 316 nM | IC50 (second compound 10 µM): > 316 nM | viability, T/C (second compound 0.0316 µM, first compound 0.000999 µM): 108% | viability, T/C (second compound 0.0316 µM, first compound 0.00316 µM): 97.2% | viability, T/C (second compound 0.0316 µM, first compound 0.00999 µM): 99.4% | viability, T/C [1]: 106% | viability, T/C (second compound 0.0316 µM, first compound 0.0999 µM): 109% | viability, T/C [2]: 102% | viability, T/C (second compound 0.1 µM, first compound 0.000999 µM): 102% | viability, T/C (second compound 0.1 µM, first compound 0.00316 µM): 99.9% | viability, T/C (second compound 0.1 µM, first compound 0.00999 µM): 98.6% | viability, T/C [3]: 105% | viability, T/C (second compound 0.1 µM, first compound 0.0999 µM): 104% | viability, T/C [4]: 101% | viability, T/C (second compound 0.316 µM, first compound 0.000999 µM): 106% | viability, T/C (second compound 0.316 µM, first compound 0.00316 µM): 100% | viability, T/C (second compound 0.316 µM, first compound 0.00999 µM): 98.8% | viability, T/C [5]: 97.7% | viability, T/C (second compound 0.316 µM, first compound 0.0999 µM): 105% | viability, T/C [6]: 99.7% | viability, T/C (second compound 1 µM, first compound 0.000999 µM): 102% | viability, T/C (second compound 1 µM, first compound 0.00316 µM): 92% | viability, T/C (second compound 1 µM, first compound 0.00999 µM): 96.4% | viability, T/C [7]: 96% | viability, T/C (second compound 1 µM, first compound 0.0999 µM): 101% | viability, T/C [8]: 94.6% | viability, T/C (second compound 3.16 µM, first compound 0.000999 µM): 90.1% | viability, T/C (second compound 3.16 µM, first compound 0.00316 µM): 81.3% | viability, T/C (second compound 3.16 µM, first compound 0.00999 µM): 84.3% | viability, T/C [9]: 85.8% | viability, T/C (second compound 3.16 µM, first compound 0.0999 µM): 90% | viability, T/C [10]: 86.5% | viability, T/C (second compound 10 µM, first compound 0.000999 µM): 71.2% | viability, T/C (second compound 10 µM, first compound 0.00316 µM): 77% | viability, T/C (second compound 10 µM, first compound 0.00999 µM): 70.8% | viability, T/C [11]: 77.5% | viability, T/C (second compound 10 µM, first compound 0.0999 µM): 75.4% | viability, T/C [12]: 71.7%

C#Cc1c(F)ccc2cc(O)cc(-c3ncc4c(N5CC6CCC(C5)N6)nc(OCC56CCCN5CC(F)C6)nc4c3F)c12 (stereo unspecified) + CN(C)c1ccc(Nc2c3ccc(NC(=O)CCN4CCCC4)cc3nc3cc(NC(=O)CCN4CCCC4)ccc23)cc1
IC50 (second compound 0.0316 µM): > 10000 nM | IC50 (second compound 0.1 µM): > 10000 nM | IC50 (second compound 0.316 µM): > 10000 nM | IC50 (second compound 1 µM): > 10000 nM | IC50 (second compound 3.16 µM): > 10000 nM | IC50 (second compound 10 µM): > 10000 nM | viability, T/C [1]: 111% | viability, T/C [13]: 96.2% | viability, T/C [2]: 98.1% | viability, T/C [14]: 96.8% | viability, T/C [15]: 102% | viability, T/C [16]: 90.3% | viability, T/C [3]: 104% | viability, T/C [17]: 104% | viability, T/C [4]: 96.1% | viability, T/C [18]: 101% | viability, T/C [19]: 94.3% | viability, T/C [20]: 94.6% | viability, T/C [5]: 99.1% | viability, T/C [21]: 97% | viability, T/C [6]: 95.5% | viability, T/C [22]: 92% | viability, T/C [23]: 96.2% | viability, T/C [24]: 87% | viability, T/C [7]: 97.1% | viability, T/C [25]: 88.7% | viability, T/C [8]: 91.3% | viability, T/C [26]: 77.8% | viability, T/C [27]: 91.4% | viability, T/C [28]: 80.3% | viability, T/C [9]: 81.6% | viability, T/C [29]: 75.1% | viability, T/C [10]: 80.6% | viability, T/C [30]: 69.7% | viability, T/C [31]: 78.2% | viability, T/C [32]: 74.7% | viability, T/C [11]: 67.4% | viability, T/C [33]: 67.5% | viability, T/C [12]: 63.5% | viability, T/C [34]: 68.8% | viability, T/C [35]: 71% | viability, T/C [36]: 58.9%

O=C(NO)c1cnc(N2CCN(S(=O)(=O)c3ccc4ccccc4c3)CC2)nc1 + Cc1[nH]c2ccc(F)cc2c1-c1nc2c3cccnc3c3ncccc3c2[nH]1
IC50 (second compound 0.0316 µM): 1530 nM | IC50 (second compound 0.1 µM): 1590 nM | IC50 (second compound 0.316 µM): 1610 nM | IC50 (second compound 1 µM): 1680 nM | IC50 (second compound 3.16 µM): 1600 nM | IC50 (second compound 10 µM): 1770 nM | viability, T/C [1]: 107% | viability, T/C [13]: 96.5% | viability, T/C [2]: 107% | viability, T/C [14]: 79% | viability, T/C [15]: 1.25% | viability, T/C [16]: 0.26% | viability, T/C [3]: 109% | viability, T/C [17]: 103% | viability, T/C [4]: 100% | viability, T/C [18]: 81.9% | viability, T/C [19]: 2.07% | viability, T/C [20]: 0.2% | viability, T/C [5]: 101% | viability, T/C [21]: 100% | viability, T/C [6]: 96.1% | viability, T/C [22]: 80.5% | viability, T/C [23]: 6.68% | viability, T/C [24]: 0.19% | viability, T/C [7]: 94.7% | viability, T/C [25]: 92.4% | viability, T/C [8]: 98.2% | viability, T/C [26]: 84.8% | viability, T/C [27]: 7.25% | viability, T/C [28]: 0.23% | viability, T/C [9]: 93.1% | viability, T/C [29]: 93.7% | viability, T/C [10]: 96.1% | viability, T/C [30]: 80.8% | viability, T/C [31]: 4.92% | viability, T/C [32]: 0.25% | viability, T/C [11]: 95.7% | viability, T/C [33]: 94.2% | viability, T/C [12]: 99.2% | viability, T/C [34]: 93.6% | viability, T/C [35]: 5.75% | viability, T/C [36]: 0.31%
